In paper PMC4490784, “Compensatory induction of MYC expression by sustained CDK9 inhibition via a BRD4-dependent mechanism” (eLife, 2015):

Key:
Assay in all cases: KINOMEscan binding assay
CDK4-cyclinD3 = target: T1, CDK4-cyclinD3 (Homo sapiens, UniProt P11802); settings: 1 µM i-CDK9; read-out: % Retention on Solid Support
T1 construct: purchased DiscoveRx KINOMEscan
Method in brief: (§1)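 Binding, not catalytic activity, is measured: the compound competes with an active-site-directed ligand. Screening concentrations were 1 and 10 µM, applied across more than 400 kinases.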

p38-beta = target: T2, p38-beta (Homo sapiens, UniProt Q15759); settings: read-out: % Retention on Solid Support
T2 construct: purchased DiscoveRx KINOMEscan
Method in brief: as §1

ABL1-phosphorylated = target: T3, ABL1-phosphorylated (Homo sapiens, UniProt P00519); settings: 1 µM i-CDK9; read-out: % Retention on Solid Support
T3 construct: purchased DiscoveRx KINOMEscan
T3 sequence (P00519 whole entry): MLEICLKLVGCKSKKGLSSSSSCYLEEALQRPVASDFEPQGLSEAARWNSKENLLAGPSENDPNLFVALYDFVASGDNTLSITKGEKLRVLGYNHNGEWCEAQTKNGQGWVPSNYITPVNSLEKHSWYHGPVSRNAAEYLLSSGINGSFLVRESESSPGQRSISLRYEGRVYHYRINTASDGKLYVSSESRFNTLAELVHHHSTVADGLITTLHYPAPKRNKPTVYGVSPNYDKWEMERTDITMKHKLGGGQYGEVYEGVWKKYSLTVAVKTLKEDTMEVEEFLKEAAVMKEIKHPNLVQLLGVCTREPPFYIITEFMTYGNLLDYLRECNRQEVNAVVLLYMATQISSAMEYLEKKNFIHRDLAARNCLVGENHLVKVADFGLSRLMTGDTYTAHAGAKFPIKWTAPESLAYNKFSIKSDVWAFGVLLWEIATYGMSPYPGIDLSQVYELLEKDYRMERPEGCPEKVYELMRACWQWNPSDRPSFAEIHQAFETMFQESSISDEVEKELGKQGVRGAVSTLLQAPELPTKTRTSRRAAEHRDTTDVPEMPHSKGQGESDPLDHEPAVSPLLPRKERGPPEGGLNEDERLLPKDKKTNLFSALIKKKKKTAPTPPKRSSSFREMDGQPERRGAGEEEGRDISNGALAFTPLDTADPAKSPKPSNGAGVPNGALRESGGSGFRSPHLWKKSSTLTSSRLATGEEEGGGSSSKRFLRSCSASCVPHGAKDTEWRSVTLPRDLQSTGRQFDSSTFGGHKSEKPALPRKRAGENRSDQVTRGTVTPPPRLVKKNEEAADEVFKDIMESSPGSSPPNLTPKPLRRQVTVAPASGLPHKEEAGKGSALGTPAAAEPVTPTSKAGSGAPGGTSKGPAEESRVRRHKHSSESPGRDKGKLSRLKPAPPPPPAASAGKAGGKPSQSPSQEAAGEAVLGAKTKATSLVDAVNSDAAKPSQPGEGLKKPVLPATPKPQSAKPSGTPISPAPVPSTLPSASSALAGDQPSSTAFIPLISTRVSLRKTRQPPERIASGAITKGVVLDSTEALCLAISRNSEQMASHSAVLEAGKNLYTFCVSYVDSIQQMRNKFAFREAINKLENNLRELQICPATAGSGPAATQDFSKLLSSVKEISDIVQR
Method in brief: as §1

TAOK3 = target: T4, TAOK3 (Homo sapiens, UniProt Q9H2K8); settings: read-out: % Retention on Solid Support
T4 construct: purchased DiscoveRx KINOMEscan
T4 sequence (Q9H2K8 1-898): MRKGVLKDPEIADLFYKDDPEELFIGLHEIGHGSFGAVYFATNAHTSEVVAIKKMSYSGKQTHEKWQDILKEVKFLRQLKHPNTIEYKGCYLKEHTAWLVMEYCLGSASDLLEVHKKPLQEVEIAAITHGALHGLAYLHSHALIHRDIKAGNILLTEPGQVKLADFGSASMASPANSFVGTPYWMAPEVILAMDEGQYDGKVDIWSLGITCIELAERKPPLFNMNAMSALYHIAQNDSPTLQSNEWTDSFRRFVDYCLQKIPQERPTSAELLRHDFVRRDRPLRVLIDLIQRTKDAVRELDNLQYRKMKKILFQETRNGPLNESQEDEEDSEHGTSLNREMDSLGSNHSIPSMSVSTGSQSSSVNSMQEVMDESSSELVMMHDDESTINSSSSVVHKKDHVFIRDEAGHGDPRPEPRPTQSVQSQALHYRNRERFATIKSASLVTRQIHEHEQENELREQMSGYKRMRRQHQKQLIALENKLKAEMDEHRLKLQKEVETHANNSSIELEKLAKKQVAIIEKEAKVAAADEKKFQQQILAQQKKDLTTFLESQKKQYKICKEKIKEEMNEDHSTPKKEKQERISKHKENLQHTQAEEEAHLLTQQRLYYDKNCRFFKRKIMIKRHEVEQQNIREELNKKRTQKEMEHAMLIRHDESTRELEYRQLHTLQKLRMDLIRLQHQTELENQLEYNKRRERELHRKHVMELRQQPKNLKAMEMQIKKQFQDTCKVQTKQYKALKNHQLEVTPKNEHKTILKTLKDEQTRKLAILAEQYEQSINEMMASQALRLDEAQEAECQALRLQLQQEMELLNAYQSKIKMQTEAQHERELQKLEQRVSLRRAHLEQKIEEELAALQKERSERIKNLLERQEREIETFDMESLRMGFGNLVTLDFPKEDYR
Method in brief: as §1

LOK = target: T5, LOK (Homo sapiens, UniProt O94804)
T5 construct: purchased DiscoveRx KINOMEscan
Method in brief: as §1

DYRK1B = target: T6, DYRK1B (Homo sapiens, UniProt Q9Y463); settings: read-out: % Retention on Solid Support
T6 construct: purchased DiscoveRx KINOMEscan
T6 sequence (Q9Y463 whole entry): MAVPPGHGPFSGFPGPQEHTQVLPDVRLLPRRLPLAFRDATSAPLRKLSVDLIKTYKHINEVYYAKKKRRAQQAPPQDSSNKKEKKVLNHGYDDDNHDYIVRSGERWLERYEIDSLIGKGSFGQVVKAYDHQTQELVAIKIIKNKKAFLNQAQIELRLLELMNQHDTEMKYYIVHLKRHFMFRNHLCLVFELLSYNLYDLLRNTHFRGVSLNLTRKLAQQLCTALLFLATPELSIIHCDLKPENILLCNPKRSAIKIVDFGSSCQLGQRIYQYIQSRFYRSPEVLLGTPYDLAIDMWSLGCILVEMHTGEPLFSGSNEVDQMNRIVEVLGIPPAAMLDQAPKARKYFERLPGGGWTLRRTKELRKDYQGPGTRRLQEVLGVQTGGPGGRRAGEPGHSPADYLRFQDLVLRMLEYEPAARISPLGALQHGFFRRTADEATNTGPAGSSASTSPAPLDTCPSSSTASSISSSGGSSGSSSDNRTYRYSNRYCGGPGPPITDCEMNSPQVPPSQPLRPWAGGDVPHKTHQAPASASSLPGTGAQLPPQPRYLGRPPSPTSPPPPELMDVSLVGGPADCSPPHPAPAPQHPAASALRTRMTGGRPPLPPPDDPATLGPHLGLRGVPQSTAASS
Method in brief: as §1

DMPK = target: T7, DMPK (Homo sapiens, UniProt Q09013); settings: read-out: % Retention on Solid Support
T7 construct: purchased DiscoveRx KINOMEscan
Method in brief: as §1

PIM2 = target: T8, PIM2 (Homo sapiens, UniProt Q9P1W9); settings: read-out: % Retention on Solid Support
T8 construct: purchased DiscoveRx KINOMEscan
T8 sequence (Q9P1W9 whole entry): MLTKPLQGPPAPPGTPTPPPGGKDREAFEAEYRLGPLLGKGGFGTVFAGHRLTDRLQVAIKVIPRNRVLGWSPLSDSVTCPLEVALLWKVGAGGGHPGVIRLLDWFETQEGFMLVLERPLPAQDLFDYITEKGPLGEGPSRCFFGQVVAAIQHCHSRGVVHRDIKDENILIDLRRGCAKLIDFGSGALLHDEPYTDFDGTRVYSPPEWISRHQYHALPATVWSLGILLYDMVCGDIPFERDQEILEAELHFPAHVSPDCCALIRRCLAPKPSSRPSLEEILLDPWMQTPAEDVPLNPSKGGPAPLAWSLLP
Method in brief: as §1

PIK3CA = target: T9, PIK3CA (Homo sapiens, UniProt P42336); settings: read-out: % Retention on Solid Support
T9 construct: purchased DiscoveRx KINOMEscan
T9 sequence (P42336 whole entry): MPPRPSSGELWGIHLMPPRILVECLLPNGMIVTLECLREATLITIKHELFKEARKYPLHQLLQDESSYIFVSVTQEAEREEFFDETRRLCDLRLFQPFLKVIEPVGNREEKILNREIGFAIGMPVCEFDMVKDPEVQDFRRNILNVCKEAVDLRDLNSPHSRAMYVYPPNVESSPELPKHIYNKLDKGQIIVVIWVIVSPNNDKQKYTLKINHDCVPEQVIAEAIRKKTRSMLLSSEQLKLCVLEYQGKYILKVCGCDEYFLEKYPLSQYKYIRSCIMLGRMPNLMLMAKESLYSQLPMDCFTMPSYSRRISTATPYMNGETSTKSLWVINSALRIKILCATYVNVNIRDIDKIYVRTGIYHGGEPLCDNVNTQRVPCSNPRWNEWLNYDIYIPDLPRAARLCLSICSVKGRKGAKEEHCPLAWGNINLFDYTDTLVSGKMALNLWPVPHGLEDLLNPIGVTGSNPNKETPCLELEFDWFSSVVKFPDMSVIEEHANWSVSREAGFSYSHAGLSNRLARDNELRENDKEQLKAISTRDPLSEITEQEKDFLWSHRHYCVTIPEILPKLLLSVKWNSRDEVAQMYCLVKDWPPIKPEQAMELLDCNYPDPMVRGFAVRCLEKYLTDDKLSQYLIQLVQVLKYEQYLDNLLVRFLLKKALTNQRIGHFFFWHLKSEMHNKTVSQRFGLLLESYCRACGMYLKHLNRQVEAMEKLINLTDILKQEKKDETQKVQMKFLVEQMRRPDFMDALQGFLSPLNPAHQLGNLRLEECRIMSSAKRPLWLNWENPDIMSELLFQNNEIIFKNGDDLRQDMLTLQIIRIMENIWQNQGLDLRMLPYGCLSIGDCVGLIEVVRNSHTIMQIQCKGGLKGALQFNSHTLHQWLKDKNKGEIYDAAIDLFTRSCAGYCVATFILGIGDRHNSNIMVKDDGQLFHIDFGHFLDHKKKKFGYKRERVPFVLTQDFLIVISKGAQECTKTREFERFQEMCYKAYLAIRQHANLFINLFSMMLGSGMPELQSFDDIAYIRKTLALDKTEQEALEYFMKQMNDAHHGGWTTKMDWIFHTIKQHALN
Method in brief: as §1

[1] = target: T10, ABL1(F317I)-phosphorylated (Homo sapiens, UniProt P00519, F317I); settings: 1 µM i-CDK9; read-out: % Retention on Solid Support
T10 construct: purchased DiscoveRx KINOMEscan
T10 sequence (P00519 whole entry F317I): as the sequence (P00519 whole entry) above, with F317I counted along it
Method in brief: as §1

PIK3CA(E545K) = target: T11, PIK3CA(E545K) (Homo sapiens, UniProt P42336, E545K); settings: read-out: % Retention on Solid Support
T11 construct: purchased DiscoveRx KINOMEscan
T11 sequence (P42336 whole entry E545K): as the sequence (P42336 whole entry) above, with E545K counted along it
Method in brief: as §1

CSNK2A1 = target: T12, CSNK2A1 (Homo sapiens, UniProt P68400); settings: read-out: % Retention on Solid Support
T12 construct: purchased DiscoveRx KINOMEscan
Method in brief: as §1

ABL1-nonphosphorylated = target: T13, ABL1-nonphosphorylated (Homo sapiens, UniProt P00519); settings: read-out: % Retention on Solid Support
T13 construct: purchased DiscoveRx KINOMEscan
T13 sequence (P00519 whole entry): as the sequence (P00519 whole entry) above
Method in brief: as §1

PRKD2 = target: T14, PRKD2 (Homo sapiens, UniProt Q9BZL6); settings: read-out: % Retention on Solid Support
T14 construct: purchased DiscoveRx KINOMEscan
Method in brief: as §1

CSF1R = target: T15, CSF1R (Homo sapiens, UniProt P07333); settings: read-out: % Retention on Solid Support
T15 construct: purchased DiscoveRx KINOMEscan
Method in brief: as §1

MEK2 = target: T16, MEK2 (Homo sapiens, UniProt P36507); settings: read-out: % Retention on Solid Support
T16 construct: purchased DiscoveRx KINOMEscan
T16 sequence (P36507 whole entry): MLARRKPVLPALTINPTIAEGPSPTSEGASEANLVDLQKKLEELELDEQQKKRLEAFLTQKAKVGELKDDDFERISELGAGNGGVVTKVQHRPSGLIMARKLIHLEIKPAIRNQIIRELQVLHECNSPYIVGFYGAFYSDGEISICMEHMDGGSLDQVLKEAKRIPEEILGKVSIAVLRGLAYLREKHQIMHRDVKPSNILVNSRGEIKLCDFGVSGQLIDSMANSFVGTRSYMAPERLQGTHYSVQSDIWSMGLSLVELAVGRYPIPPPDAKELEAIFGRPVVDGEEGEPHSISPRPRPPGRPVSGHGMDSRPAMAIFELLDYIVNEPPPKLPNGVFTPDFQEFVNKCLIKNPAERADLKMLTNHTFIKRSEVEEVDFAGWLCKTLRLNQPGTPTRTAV
Method in brief: as §1

MARK1 = target: T17, MARK1 (Homo sapiens, UniProt Q9P0L2); settings: read-out: % Retention on Solid Support
T17 construct: purchased DiscoveRx KINOMEscan
T17 sequence (Q9P0L2 whole entry): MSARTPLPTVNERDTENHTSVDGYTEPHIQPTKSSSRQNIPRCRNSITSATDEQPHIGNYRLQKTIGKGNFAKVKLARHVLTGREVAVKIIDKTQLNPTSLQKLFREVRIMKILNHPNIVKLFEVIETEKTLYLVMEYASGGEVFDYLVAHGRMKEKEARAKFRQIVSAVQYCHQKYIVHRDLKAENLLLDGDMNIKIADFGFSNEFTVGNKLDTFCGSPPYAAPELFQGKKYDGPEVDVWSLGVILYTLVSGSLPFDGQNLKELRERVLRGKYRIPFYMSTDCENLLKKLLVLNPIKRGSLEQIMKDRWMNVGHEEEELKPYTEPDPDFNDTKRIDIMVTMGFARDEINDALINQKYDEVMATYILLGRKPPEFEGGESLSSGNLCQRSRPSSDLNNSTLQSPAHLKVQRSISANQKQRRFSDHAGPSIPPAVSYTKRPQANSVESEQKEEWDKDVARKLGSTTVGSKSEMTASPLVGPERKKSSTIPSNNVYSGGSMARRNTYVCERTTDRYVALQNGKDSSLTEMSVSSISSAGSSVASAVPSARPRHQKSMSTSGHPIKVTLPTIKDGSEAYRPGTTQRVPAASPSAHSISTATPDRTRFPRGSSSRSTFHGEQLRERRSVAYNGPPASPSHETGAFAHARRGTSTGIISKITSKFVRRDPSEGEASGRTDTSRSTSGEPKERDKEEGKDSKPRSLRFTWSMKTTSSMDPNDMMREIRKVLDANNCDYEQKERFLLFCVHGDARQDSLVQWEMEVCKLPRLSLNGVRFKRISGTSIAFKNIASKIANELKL
Method in brief: as §1

CASK = target: T18, CASK (Homo sapiens, UniProt O14936); settings: 1 µM i-CDK9; read-out: % Retention on Solid Support
T18 construct: purchased DiscoveRx KINOMEscan
Method in brief: as §1

FRK = target: T19, FRK (Homo sapiens, UniProt P42685); settings: read-out: % Retention on Solid Support
T19 construct: purchased DiscoveRx KINOMEscan
T19 sequence (P42685 whole entry): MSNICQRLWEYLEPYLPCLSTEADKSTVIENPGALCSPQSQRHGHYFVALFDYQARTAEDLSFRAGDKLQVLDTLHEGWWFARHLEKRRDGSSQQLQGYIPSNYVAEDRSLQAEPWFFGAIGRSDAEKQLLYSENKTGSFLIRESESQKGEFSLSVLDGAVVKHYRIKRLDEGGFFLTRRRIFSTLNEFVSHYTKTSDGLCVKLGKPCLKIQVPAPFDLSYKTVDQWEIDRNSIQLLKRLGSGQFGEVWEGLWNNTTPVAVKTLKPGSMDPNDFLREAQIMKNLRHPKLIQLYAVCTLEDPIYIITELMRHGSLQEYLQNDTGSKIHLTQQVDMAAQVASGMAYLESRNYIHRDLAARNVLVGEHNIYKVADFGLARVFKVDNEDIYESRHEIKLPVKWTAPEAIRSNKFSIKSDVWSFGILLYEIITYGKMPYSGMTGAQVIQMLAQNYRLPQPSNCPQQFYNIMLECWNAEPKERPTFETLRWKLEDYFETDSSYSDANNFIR
Method in brief: as §1

DAPK1 = target: T20, DAPK1 (Homo sapiens, UniProt P53355); settings: read-out: % Retention on Solid Support
T20 construct: purchased DiscoveRx KINOMEscan
Method in brief: as §1

## N[C@H]1CC[C@H](Nc2cc(-c3cccc(NCc4cccc(F)c4)n3)c(Cl)cn2)CC1 [i-CDK9, N2′-(trans-4-aminocyclohexyl)-5′-chloro-N6-(3-fluorobenzyl)-2,4′-bipyridine-2′,6-diamine]
CDK4-cyclinD3
  remaining binding at 1 µM: 100%
p38-beta; 1 µM i-CDK9
  remaining binding at 1 µM: 66%
p38-beta; 10 µM i-CDK9
  remaining binding at 10 µM: 100%
ABL1-phosphorylated
  remaining binding at 1 µM: 67%
TAOK3; 1 µM i-CDK9
  remaining binding at 1 µM: 12%
TAOK3; 10 µM i-CDK9
  remaining binding at 10 µM: 1.2%
LOK; 1 µM i-CDK9
  % Retention on Solid Support: 89%
LOK; 10 µM i-CDK9
  % Retention on Solid Support: 100%
DYRK1B; 1 µM i-CDK9
  remaining binding at 1 µM: 0.95%
DYRK1B; 10 µM i-CDK9
  remaining binding at 10 µM: 0.7%
DMPK; 1 µM i-CDK9
  remaining binding at 1 µM: 100%
DMPK; 10 µM i-CDK9
  remaining binding at 10 µM: 20%
PIM2; 1 µM i-CDK9
  remaining binding at 1 µM: 96%
PIM2; 10 µM i-CDK9
  remaining binding at 10 µM: 22%
PIK3CA; 1 µM i-CDK9
  remaining binding at 1 µM: 100%
PIK3CA; 10 µM i-CDK9
  remaining binding at 10 µM: 100%
[1]
  remaining binding at 1 µM: 100%
PIK3CA(E545K); 1 µM i-CDK9
  remaining binding at 1 µM: 100%
PIK3CA(E545K); 10 µM i-CDK9
  remaining binding at 10 µM: 95%
CSNK2A1; 1 µM i-CDK9
  remaining binding at 1 µM: 100%
CSNK2A1; 10 µM i-CDK9
  remaining binding at 10 µM: 100%
ABL1-nonphosphorylated; 1 µM i-CDK9
  remaining binding at 1 µM: 81%
ABL1-nonphosphorylated; 10 µM i-CDK9
  remaining binding at 10 µM: 100%
PRKD2; 1 µM i-CDK9
  remaining binding at 1 µM: 88%
PRKD2; 10 µM i-CDK9
  remaining binding at 10 µM: 47%
CSF1R; 1 µM i-CDK9
  remaining binding at 1 µM: 59%
CSF1R; 10 µM i-CDK9
  remaining binding at 10 µM: 100%
MEK2; 1 µM i-CDK9
  remaining binding at 1 µM: 96%
MEK2; 10 µM i-CDK9
  remaining binding at 10 µM: 100%
MARK1; 1 µM i-CDK9
  remaining binding at 1 µM: 99%
MARK1; 10 µM i-CDK9
  remaining binding at 10 µM: 100%
CASK
  remaining binding at 1 µM: 100%
FRK; 1 µM i-CDK9
  remaining binding at 1 µM: 72%
FRK; 10 µM i-CDK9
  remaining binding at 10 µM: 100%
DAPK1; 1 µM i-CDK9
  remaining binding at 1 µM: 64%
DAPK1; 10 µM i-CDK9
  remaining binding at 10 µM: 100%
